Data: US7563766B2, “Methods and compositions for the promotion of a hair growth utilizing actin binding peptides” (The United States of America as represented by the …, priority 2002, dated 2009)
Ends that are not written are not given here.

What was measured:
hair follicles = assay: Topical thymosin β4 on normal (unwounded) shaved rat skin; assay type: in vivo; conditions: 30 days after treatment
Description: In these experiments, 8 week old female Sprague Dawley rats were utilized. Thymosin β4 was applied on the shaved backs of the animals at a concentration of 0.5 mg/ml in hydrogel three times per week (Monday, Wednesday and Friday). The hair of the animals was observed over 30 days. Some of the animals were sacrificed on day 7 after the initiation of treatment, while others were sacrificed on day 30 after initiation of treatment. Tissue sections were prepared using methods known in the art, as indicated above in Example 1. The tissue section samples were all read and compared on a blind basis by an observer trained in dermatology.
One study used shaved rats where thymosin β4 was applied topically on one side of the shaved area and on the opposing lateral side a control vehicle was applied. […] The number of anagen follicles was approximately two-fold greater than in rats treated with the control vehicle alone (see FIG. 7D). […] The increased number of hairs in the anagen phase was retained with continued tri-weekly treatment over 30 days. However, within 14 days of ceasing treatment, the number of active hair follicles decreased to control levels.

[1] = tested on: male patients between 18 and 41 years of age; post-menopausal women; conditions: cited from earlier work
chick aortic arches = assay: Chick aortic arch vessel sprouting assay; assay type: cell-based; set-up: key to Sprouting: − = no activity; +/− = low activity; + = active; ++ = high activity; conditions: for Sprouting: Table 2 score; for activity in the assays (endothelial cell migration and vessel sprouting): statement covers both migration and sprouting assays
Description: Chick aortic arch assay—The aortic arch of 13-day-old chick embryos was removed and placed in RPMI 1640. After removal of surrounding connective tissue, transverse sections of the arch were made (1 mm). The resulting aortic rings were carefully attached to the bottom of a 48-well plate, one ring per well, with 20-30 μl of Matrigel (Collaborative Biomedical Products). The rings were placed so that the lumen of each ring could be seen. More Matrigel was added onto the top of the rings to seal them in place. A 100 μl volume of human endothelial—SFM basal growth medium (Invitrogen) containing 1% penicillin streptomycin was added to each well. Thymosin β4, peptide fragments, and exogenous actin (Sigma Chemical Co.) were added to wells in serum-free medium, bringing the final volume of each well to 400 μl. ECGS (200 μg/ml) was used as a positive control. The plates were incubated for 24 hr at 37° C. Rings were fixed and stained with Diff-Quik solution II. Sprouting was scored in a blind assessment by an observer using 10× magnification on an Olympus microscope. Six wells were used for each condition tested, and each assay was done three times.

[2] = tested on: human umbilical vein endothelial cells; assay: HUVEC migration, Boyden chamber assay; assay type: cell-based; set-up: key to Migration: − = no activity; +/− = low activity; + = active; ++ = high activity; conditions: for Migration: Table 2 score
Description: Cells—HUVECs were isolated and used at passages 2-5. Grant et al., J. Cell Sci. 108:3685-3694 (1995). The cells were cultured in RPMI 1640 (Invitrogen, Carlsbad, Calif.) supplemented with 20% bovine calf serum (Hyclone Laboratories, Logan, Utah), 200 μg/ml of endothelial cell growth supplement (ECGS) (Collaborative Biomedical Products, Bedford, Mass.), 0.8 U/ml heparin sodium (Fisher Scientific, Pittsburgh, Pa.), penicillin/streptomycin (Invitrogen, Carlsbad, Calif.), 10 μg/ml gentamycin (Invitrogen, Carlsbad, Calif.), and 1% fungizone (Invitrogen, Carlsbad, Calif.).
Boyden chamber assay—HUVEC migration assays were conducted in a 48-well micro-chemotaxis chamber (Neuro Probe Inc., Cabin John, Md.) as previously described in Salcedo et al., J. Immunol. 166:7571-7578 (2001). Briefly, PVP-free polycarbonate membranes with 8 μm pores were coated with 50 μg/ml of rat tail collagen (BD Biosciences, Bedford, Mass.) in RPMI 1640 that contained 25 mM HEPES (Invitrogen, Carlsbad, Calif.) at 4° C. overnight. The membranes were dried at least 1 hr prior to use. HUVECs were serum-starved for 2 hr, harvested using Versene (Invitrogen, Carlsbad, Calif.), and resuspended in binding medium that contained RPMI 1640 with 1% BSA and 25 mM HEPES. The lower wells of the chamber were loaded with 1, 10, 100, and 1000 ng/ml of thymosin β4 or peptide fragments that were diluted in binding medium. Basic fibroblast growth factor (bFGF) (200 ng/ml) was used as a positive control. Cells were added to the upper portion of the chamber at a concentration of 50,000 cells per well. The chambers were incubated at 37° C. for 4 hr. The filters were fixed and stained using Diff-Quik (VWR, Bridgeport, N.J.). The cells that successfully migrated through the pores of the membrane were manually quantitated using a CK-2 Olympus microscope at 10× magnification. Each condition was assayed in triplicate, and the assay was repeated twice.

[3] = 1 mg/day oral for 2 years, male patients 18 to 41 years

Row | Compound | Sprouting (chick aortic arches) | activity in the assays (endothelial cell migration and vessel sprouting) (chick aortic arches) | Migration [2] | other results
1 | CC[C@H](C)[C@H](NC(=O)[C@H](CCC(=O)O)NC(=O)[C@H](C)NC(=O)[C@H](CCSC)NC(=O)[C@H](CC(=O)O)NC(=O)[C@@H]1CCCN1C(=O)[C@H](CCCCN)NC(=O)[C@H](CC(=O)O)NC(=O)[C@H](CO)NC(C)=O)C(=O)N[C@@H](CCC(=O)O)C(=O)N[C@@H](CCCCN)C(=O)N[C@@H](Cc1ccccc1)C(=O)N[C@@H](CC(=O)O)C(=O)N[C@@H](CCCCN)C(=O)N[C@@H](CO)C(=O)N[C@@H](CCCCN)C(=O)N[C@@H](CC(C)C)C(=O)N[C@@H](CCCCN)C(=O)N[C@@H](CCCCN)C(=O)N[C@H](C(=O)N[C@@H](CCC(=O)O)C(=O)N[C@H](C(=O)N[C@@H](CCC(N)=O)C(=O)N[C@@H](CCC(=O)O)C(=O)N[C@@H](CCCCN)C(=O)N[C@@H](CC(N)=O)C(=O)N1CCC[C@H]1C(=O)N[C@@H](CC(C)C)C(=O)N1CCC[C@H]1C(=O)N[C@@H](CO)C(=O)N[C@@H](CCCCN)C(=O)N[C@@H](CCC(=O)O)C(=O)N[C@H](C(=O)N[C@H](C(=O)N[C@@H](CCC(=O)O)C(=O)N[C@@H](CCC(N)=O)C(=O)N[C@@H](CCC(=O)O)C(=O)N[C@@H](CCCCN)C(=O)N[C@@H](CCC(N)=O)C(=O)N[C@@H](C)C(=O)NCC(=O)N[C@@H](CCC(=O)O)C(=O)N[C@@H](CO)C(=O)O)[C@@H](C)CC)[C@@H](C)O)[C@@H](C)O)[C@@H](C)O [Tβ4, Thymosin β4] |  |  |  | change in the epidermis or in the thickness of the dermis (hair follicles): little change; inflammatory cells (hair follicles): some increase
2 | CC(C)(C)NC(=O)[C@H]1CC[C@H]2[C@@H]3CC[C@H]4NC(=O)C=C[C@]4(C)[C@H]3CC[C@]12C [finasteride] |  |  |  | cases in which further hair loss was prevented [1, 3]: 83%; cases with visible hair growth [1, 3]: 66%; efficacy in post-menopausal women ([1]; 1 mg/day over 1 year): ineffective; side effects ([1]; human, in vivo): lack of libido, lack of potency, and mild reduction in semen
3 | Tβ4^1-8: proteolytic fragment of naturally occurring Tβ4, acSDKP DM (Ac-SDKPDM; UniProt P62328 2-7, looked up, fragment) | − | inactive |  | 
4 | Tβ4^1-16: synthetic, the first 15 amino acid residues of SEQ ID NO: 1 (SDKPDMAEIEKFDKS; ends and bridges not checked; listed as Bos taurus) | +/− |  | − | vessel sprouting, in words (chick aortic arches): very weak activity
5 | Tβ4^1-28: proteolytic fragment of naturally occurring Tβ4, residues 1 to KN (SDKPDMAEIEKFDKSKLKKTETQEKN; not fully specified; Thymosin beta-4; UniProt P62328 2-27, looked up, fragment) | +/− | generally highly active |  | 
6 | Tβ4^7-43: proteolytic fragment of naturally occurring Tβ4, residues 7-43 (AEIEKFDKSKLKKTETQEKNPLPSKETIEQEKQAGES; Thymosin beta-4; UniProt P62328 8-44, looked up, fragment) | ++ | generally highly active | ++ | 
7 | Tβ4^10-28: synthetic, amino acid residues 10-28 of SEQ ID NO: 1 (EKFDKSKLKKTETQEKNPL; listed as Bos taurus) | ++ | generally highly active | + | 
8 | Tβ4^13-43: proteolytic fragment of naturally occurring Tβ4, residues 13-43 (DKSKLKKTETQEKNPLPSKETIEQEKQAGES; Thymosin beta-4; UniProt P62328 14-44, looked up, fragment) | +/− | generally highly active | + | 
9 | Tβ4^18-19: synthetic, amino acid residues 13-19 of SEQ ID NO: 1 (DKSKLKK; listed as Bos taurus) | − | inactive |  | 
10 | Tβ4^20-48: synthetic, amino acid residues 20-43 of SEQ ID NO: 1 (TETQEKNPLPSKETIEQEKQAGES; listed as Bos taurus) | + | generally highly active | ++ | 
11 | Tβ4^27-48: proteolytic fragment PLP SKETI EQEKQ AGES (PLPSKETIEQEKQAGES; Thymosin beta-4; UniProt P62328 28-44, looked up, fragment) | +/− |  | + | 
12 | Tβ4^Ala: naturally occurring β-thymosin, acADKP variant of Tβ4 (ADKPDMAEIEKFDKSKLKKTETQEKNPLPSKETIEQEKQAGES; Thymosin beta-4 N-terminal acetyl; UniProt P62328 2-44, looked up, variant S1A) | + | active |  | 
13 | Tβ10: naturally occurring β-thymosin with conserved actin-binding domain (ADKPDMGEIASFDKAKLKKTETQEKNTLPTKETIEQEKRSEIS; UniProt P63313 2-44, looked up) | + | active | ++ | 
14 | Tβ15^18-28: synthetic peptide of thymosin β15 amino acids 13-23, DK SKLKK TNTE | + |  |  | vessel sprouting, in words (chick aortic arches): active
15 | amino acid residues 17-22 of SEQ ID NO: 1: six amino acid residues 17-22 of thymosin β4, shorter actin binding sequence (LKKTET; listed as Bos taurus) |  |  |  | endothelial cell migration, in words [2]: promotes endothelial cell migration
16 | thymosin β4-sulfoxide (SDKPDMAEIEKFDKSKLKKTETQEKNPLPSKETIEQEKQAGES; Thymosin beta-4 methionine sulfoxide; UniProt P62328 2-44, looked up) [Tβ4^(O), sulfoxide form prepared from the naturally occurring peptide] | ++ | active | ++ | 
